Reference: publication PMC11259170, “Small-molecule probe for IBD risk variant GPR65 I231L alters cytokine signaling networks through positive allosteric modulation” (Science Advances, 2024)

Key:
[1] = test system: GPR65 KO HeLa cells + pLX empty vector; experiment: cAMP detection, GPR65 KO HeLa + empty pLX vector (null control); format: cell-based, human; conditions: Homo sapiens, 0.5 h; HeLa GPR65 KO + pLX, pH 7.1, 30 min, normalized to DMSO and 100 μM forskolin
Procedure, shortened: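 CRISPR GPR65-KO HeLa cells, lentivirally reconstituted with hGPR65, mGPR65 or empty vector, were treated at 5000 cells/well in HBSS/Hepes with 0.5 mM IBMX at pH 7.1. Compounds were tested at 25 μM (primary screen) or 195 nM–100 μM (dose curves) for 30 min at RT. cAMP was read by Lance Ultra TR-FRET (665/615 nm) after 1 hour.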

[2] = test system: GPR65 WT mouse splenocytes; experiment: cAMP detection in GPR65 WT mouse splenocytes; format: cell-based; conditions: 0 to 50 μM, pH 7.2, GPR65-dependent
Method: cAMP was measured in cells using the Lance Ultra cAMP Kit. Spleens were harvested from GPR65 WT and GPR65 KO mice, homogenized and passed through a 70-μm cell strainer into harvest buffer [PBS, 0.5% bovine serum albumin (BSA), and 2 mM EDTA]. Cells were then centrifuged, washed with harvest buffer, and resuspended in red blood cell lysis buffer for 10 min at RT. Cells were counted and resuspended in assay buffer (25-ml DMEM, 0.5-ml 7.5% sodium bicarbonate, and 333-μl 7.5% BSA stabilizer) and adjusted to pH 7.2 with 1 M NaOH. Splenocytes were added to a white opaque OptiPlate 384-well microplates at a density of 100,000 cells per well in 20 μl. Compounds were added into the wells using a pin transfer tool, and plates were incubated at 37°C, 5% CO2 for 40 min. Each detection reagent (5 μl) was added to the plate and incubated at RT in the dark for 1 hour. Eu-cAMP tracer and FRET emissions were read using a PerkinElmer EnVision Multimode plate reader (ENVISION21040010). Data analysis was performed using GraphPad Prism.

Question: How did the EC50 [1] turn out when `CN1N=C(SCc2ccc(Cl)cc2Cl)Sc2c1cnn(C)c2=O` [BTB09089, reference compound] was run?
Answer: > 100 µM

Question: And the “cAMP production in mouse splenocytes, compared” value [2]?
Answer: induced higher cAMP production than BRD2813
